# Measurements: patent US7256187B2, “Rifamycin C-11 oxime derivatives effective against drug-resistant microbes” (Cumbre Pharmaceuticals Inc., priority 2004, dated 2007)
# Assays:
# Assay type in all cases: cell-based
# [1] = system: Haemophilus influenzae ATCC10211; assay: MIC, microbroth dilution; conditions: Haemophilus influenzae ATCC10211, rifS; read-out: Antimicrobial activity (MIC)
# [2] = system: Mycobacterium smegmatis ATCC700084; assay: MIC, microbroth dilution; conditions: Mycolicibacterium smegmatis; Mycobacterium smegmatis ATCC700084, rifS; read-out: Antimicrobial activity (MIC)
# [3] = system: Staphylococcus aureus ATCC29213; assay: MIC, microbroth dilution; conditions: Staphylococcus aureus ATCC29213, rifS; read-out: Antimicrobial activity (MIC)
# [4] = system: Staphylococcus aureus ATCC29213 rpoB^H418Y; assay: microbe, parasite or virus in culture; conditions: Staphylococcus aureus ATCC29213 rpoB^H418Y, rifR; read-out: Antimicrobial activity (MIC)
# Experimental: (§1) Representative compounds were assayed for antimicrobial activity as follows: Minimum Inhibitory Concentrations (“MICs”) were determined by the microbroth dilution method as per NCCLS guidelines (National Committee for Clinical Laboratory Standards. 2000. Methods for dilution antimicrobial susceptibility tests for bacteria that grow aerobically, 5th ed. M7-A5. National Committee for Clinical Laboratory Standards, Wayne, Pa.), except that all growth incubations were conducted at 37° C. Bacterial cultures were tested in the following bacteriological media: S. aureus, S. epidermidis, and E. coli in Cation-Adjusted Mueller-Hinton Broth, S. pneumoniae in THY Broth supplemented with 1 mg/mL catalase under 5% CO2 atmosphere, S. pyogenes in THY Broth, E. faecalis in BHI Broth, H. influenzae in BHI Broth supplemented with 0.75 μL of 1 mg/mL NAD and 150 μL of 1 mg/ml hematin per 5 mL, and M. smegmatis in Middlebrook Broth plus ADC Enrichment.
# (§2) S. aureus ATCC 29213 RpoB^H418Y is a rifampin-resistant strain with a mutation in the RpoB gene of RNA polymerase. […] S. aureus EN1252a gyrA^S84L grlA^S80F is a quinolone-resistant strain due to double gene mutations of DNA gyrase and topoisomerase IV.
# [5] = system: Staphylococcus aureus ATCC29213 rpoB^D417Y; assay: microbe, parasite or virus in culture; conditions: Staphylococcus aureus ATCC29213 rpoB^D417Y, rifR; read-out: Antimicrobial activity (MIC)
# Experimental: as §1, §2
# [6] = system: Staphylococcus aureus EN1252a gyrA^S84L grlA^S80F; assay: microbe, parasite or virus in culture; conditions: Staphylococcus aureus EN1252a gyrA^S84L grlA^S80F, cipR; read-out: Antimicrobial activity (MIC)
# Experimental: as §1, §2
# [7] = system: Enterococcus faecalis ATCC29212; assay: MIC, microbroth dilution; conditions: Enterococcus faecalis ATCC29212, rifS; read-out: Antimicrobial activity (MIC)
# [8] = system: Escherichia coli ATCC25922; assay: MIC, microbroth dilution; conditions: Escherichia coli ATCC25922, rifS; read-out: Antimicrobial activity (MIC)
# [9] = system: Streptococcus pyogenes ATCC19615; assay: MIC, microbroth dilution; conditions: Streptococcus pyogenes ATCC19615, rifS; read-out: Antimicrobial activity (MIC)
# [10] = system: Staphylococcus epidermidis ATCC12228; assay: MIC, microbroth dilution; conditions: Staphylococcus epidermidis ATCC12228, rifS; read-out: Antimicrobial activity (MIC)
# [11] = system: Streptococcus pneumoniae ATCC6303; assay: MIC, microbroth dilution; conditions: Streptococcus pneumoniae ATCC6303, rifS; read-out: Antimicrobial activity (MIC)
SMILES,MIC [1],MIC [2],MIC [3],MIC [4],MIC [5],MIC [6],MIC [7],MIC [8],MIC [9],MIC [10],MIC [11]
"COCCOCO/N=C1/c2c3c(C)c(O)c4c2C(=O)C=C(NC(=O)/C(C)=C\C=C\[C@H](C)[C@H](O)[C@@H](C)[C@@H](O)[C@@H](C)[C@H](OC(C)=O)[C@H](C)[C@@H](OC)/C=C/O[C@@]1(C)O3)C4=O [Example 10, 11-Deoxy-11-methoxyethoxymethoxyiminorifamycin S]",0.03 to 2 µg/mL,0.5 to 64 µg/mL,0.004 to 0.5 µg/mL,0.125 to 16 µg/mL,0.25 to 32 µg/mL,0.004 to 0.5 µg/mL,2 to 32 µg/mL,0.125 to 8 µg/mL,0.0005 to 0.063 µg/mL,0.0005 to 0.063 µg/mL,0.0002 to 0.125 µg/mL
"C=CCO/N=C1/c2c3c(C)c(O)c4c2C(=O)C=C(NC(=O)/C(C)=C\C=C\[C@H](C)[C@H](O)[C@@H](C)[C@@H](O)[C@@H](C)[C@H](OC(C)=O)[C@H](C)[C@@H](OC)/C=C/O[C@@]1(C)O3)C4=O [Example 11, 11-Deoxy-11-allyloxyiminorifamycin S]",0.03 to 2 µg/mL,0.5 to 64 µg/mL,0.004 to 0.5 µg/mL,0.125 to 16 µg/mL,0.25 to 32 µg/mL,0.004 to 0.5 µg/mL,2 to 32 µg/mL,0.125 to 8 µg/mL,0.0005 to 0.063 µg/mL,0.0005 to 0.063 µg/mL,0.0002 to 0.125 µg/mL
"CO[C@H]1/C=C/O[C@@]2(C)Oc3c(C)c(O)c4c(c3/C2=N/OCCBr)C(=O)C=C(NC(=O)/C(C)=C\C=C\[C@H](C)[C@H](O)[C@@H](C)[C@@H](O)[C@@H](C)[C@H](OC(C)=O)[C@@H]1C)C4=O [Example 12, 11-Deoxy-11-(2-bromoethoxyimino)rifamycin S]",0.03 to 2 µg/mL,0.5 to 64 µg/mL,0.004 to 0.5 µg/mL,0.125 to 16 µg/mL,0.25 to 32 µg/mL,0.004 to 0.5 µg/mL,2 to 32 µg/mL,0.125 to 8 µg/mL,0.0005 to 0.063 µg/mL,0.0005 to 0.063 µg/mL,0.0002 to 0.125 µg/mL
COc1c(N2CCN(CCO/N=C3/c4c5c(C)c(O)c6c4C(=O)C=C(NC(=O)/C(C)=C\C=C\[C@H](C)[C@H](O)[C@@H](C)[C@@H](O)[C@@H](C)[C@H](OC(C)=O)[C@H](C)[C@@H](OC)/C=C/O[C@@]3(C)O5)C6=O)C(C)C2)c(F)cc2c(=O)c(C(=O)O)cn(C3CC3)c12 (some centres unmarked) [Example 13],0.03 to 2 µg/mL,0.5 to 64 µg/mL,0.004 to 0.5 µg/mL,0.125 to 16 µg/mL,0.25 to 32 µg/mL,0.004 to 0.5 µg/mL,2 to 32 µg/mL,0.125 to 8 µg/mL,0.0005 to 0.063 µg/mL,0.0005 to 0.063 µg/mL,0.0002 to 0.125 µg/mL
CO[C@H]1/C=C/O[C@@]2(C)Oc3c(C)c(O)c4c(c3/C2=N/OCCN2CCN(c3cc5c(cc3F)c(=O)c(C(=O)O)cn5C3CC3)CC2)C(=O)C=C(NC(=O)/C(C)=C\C=C\[C@H](C)[C@H](O)[C@@H](C)[C@@H](O)[C@@H](C)[C@H](OC(C)=O)[C@@H]1C)C4=O [Example 15],0.03 to 2 µg/mL,0.5 to 64 µg/mL,0.004 to 0.5 µg/mL,0.125 to 16 µg/mL,0.25 to 32 µg/mL,0.004 to 0.5 µg/mL,2 to 32 µg/mL,0.125 to 8 µg/mL,0.0005 to 0.063 µg/mL,0.0005 to 0.063 µg/mL,0.0002 to 0.125 µg/mL
CO[C@H]1/C=C/O[C@@]2(C)Oc3c(C)c(O)c4c(c3/C2=N/OCCN2CCN(c3ccc(N5C[C@H](CNC(C)=O)OC5=O)cc3F)CC2)C(=O)C=C(NC(=O)/C(C)=C\C=C\[C@H](C)[C@H](O)[C@@H](C)[C@@H](O)[C@@H](C)[C@H](OC(C)=O)[C@@H]1C)C4=O [Example 16],0.03 to 2 µg/mL,0.5 to 64 µg/mL,0.004 to 0.5 µg/mL,0.125 to 16 µg/mL,0.25 to 32 µg/mL,0.004 to 0.5 µg/mL,2 to 32 µg/mL,0.125 to 8 µg/mL,0.0005 to 0.063 µg/mL,0.0005 to 0.063 µg/mL,0.0002 to 0.125 µg/mL
CO[C@H]1/C=C/O[C@@]2(C)Oc3c(C)c(O)c4c(c3/C2=N/OCCN2CCN(c3ccccn3)CC2)C(=O)C=C(NC(=O)/C(C)=C\C=C\[C@H](C)[C@H](O)[C@@H](C)[C@@H](O)[C@@H](C)[C@H](OC(C)=O)[C@@H]1C)C4=O [Example 17],0.03 to 2 µg/mL,0.5 to 64 µg/mL,0.004 to 0.5 µg/mL,0.125 to 16 µg/mL,0.25 to 32 µg/mL,0.004 to 0.5 µg/mL,2 to 32 µg/mL,0.125 to 8 µg/mL,0.0005 to 0.063 µg/mL,0.0005 to 0.063 µg/mL,0.0002 to 0.125 µg/mL
